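Step 1: Grow cells in 96-well plates. Step 2: Expose to compound for 48 hours at 5 concentrations. Step 3: Interpolate endpoints linearly; if unreached, use highest concentration. GI50: concentration for 50% inhibition of growth. TGI marks complete inhibition of growth.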
How the values were obtained:
Test in all cases: inhibition of tumour cell growth, NCI panel, 48 h
SNB-19 CNS = test system: SNB-19 CNS
MDA-MB-231 breast = test system: MDA-MB-231 breast
MCF7 breast = test system: MCF7 breast
NCI-H460 lung = test system: NCI-H460 lung
HL-60(TB) leukemia = test system: HL-60(TB) leukemia
A498 renal = test system: A498 renal
A549 NSCLC = test system: A549 NSCLC
MOLT-4 leukemia = test system: MOLT-4 leukemia
SF-295 CNS = test system: SF-295 CNS
T-47D breast = test system: T-47D breast

Structure (SMILES)	GI50 (SNB-19 CNS)	TGI (SNB-19 CNS)	GI50 (MDA-MB-231 breast)	TGI (MDA-MB-231 breast)	GI50 (MCF7 breast)	TGI (MCF7 breast)	GI50 (NCI-H460 lung)	TGI (NCI-H460 lung)	GI50 (HL-60(TB) leukemia)	TGI (HL-60(TB) leukemia)	GI50 (A498 renal)	TGI (A498 renal)	GI50 (A549 NSCLC)	TGI (A549 NSCLC)	GI50 (MOLT-4 leukemia)	TGI (MOLT-4 leukemia)	GI50 (SF-295 CNS)	TGI (SF-295 CNS)	GI50 (T-47D breast)	TGI (T-47D breast)
C[C@@H](CO)[C@@H]1CCC=C2CC[C@]3(C)[C@H](CC[C@@H]4[C@@]5(C)CCCNC(C)(C)[C@@H]5CC[C@]43C)[C@H]21	2.03 µM	4.15 µM	1.94 µM	4.03 µM	1.49 µM	3.02 µM	1.81 µM	3.39 µM	1.98 µM	4.54 µM	5.41 µM	23 µM	2.24 µM	5.04 µM	2.5 µM	7.27 µM	1.66 µM	3.11 µM	2.38 µM	7.77 µM
COc1ccc(OC)c(/C=C(/C)[N+](=O)[O-])c1	9.52 µM	23.3 µM	2.71 µM	7.45 µM	0.832 µM	2.21 µM	3.41 µM	12.7 µM			8.24 µM	20.9 µM	4.54 µM	17.5 µM	3.32 µM	> 100 µM	11.2 µM	24.8 µM	1.16 µM	2.87 µM
COc1cc(O)c(C(=O)/C=C/c2ccc(O)cc2)c(O)c1[C@@H]1C[C@H](CCc2ccc(O)cc2)O[C@H](c2ccc(O)cc2)C1	3.58 µM	13.3 µM	2.26 µM	6.32 µM	3.08 µM	8.85 µM	3 µM	7.87 µM	2.02 µM	3.91 µM	14 µM	28.1 µM			1.95 µM	5.43 µM	4.36 µM	17.8 µM	3.12 µM	17.5 µM
C=C1CCC2C(C)(C)CCC[C@]2(C)[C@H]1CO (stereo not given in full)	> 100 µM	> 100 µM	50.2 µM	> 100 µM	49.1 µM	> 100 µM	59.8 µM	> 100 µM	15.8 µM	> 100 µM			73.9 µM	> 100 µM	73.2 µM	> 100 µM	> 100 µM	> 100 µM	41.7 µM	> 100 µM
CC(C)CCN=C(N)c1ccc(N2CCN(c3ccc(C(N)=NCCC(C)C)cc3)CC2)cc1	6.52 µM	24.2 µM	20.6 µM	52.7 µM	16.2 µM	33.8 µM	14.5 µM	49.3 µM	4.74 µM	26.1 µM			7.61 µM	> 100 µM	14.6 µM	53.6 µM	6.68 µM	38.5 µM	9.54 µM	57.9 µM
Cn1ccnc1C(=O)/C=C/c1ccccc1			3.39 µM	16.8 µM	1.27 µM	6.77 µM	3.2 µM	11.4 µM	2.79 µM	7.73 µM	5.05 µM	17 µM	2.98 µM	11.5 µM	3.35 µM	15.6 µM	11.4 µM	29.1 µM	2.78 µM	7.35 µM
